These results are taken from patent US12234227B2, “Pyrazole derivatives as H4 antagonist compounds” (NXERA PHARMA UK LIMITED, priority 2018, dated 2025).

SMILES strings stand for the structures. Counter-ions that a name gives are not always drawn.

For data set [1], the target named is T1, human H4 receptor (Homo sapiens, UniProt Q9H3N8).
T1 construct: expressed in transfected cells; host or cells: HEKf cells transduced with baculovirus
Nature of the data set: H4 Antagonist Functional Dynamic Mass Redistribution Assay. The data set is classed as cell-based. The following applies: H4 antagonist activity; for Kb: read-out: Human H4 DMR fpKb (converted). As to the method: H4 Antagonist Functional Dynamic Mass Redistribution Assay
HEKf cells were infected using baculovirus expressing the human H4 receptor, plated into fibronectin-coated EPIC plates at a density of 10,000 cells/well and incubated overnight at 37° C. The medium on cells was changed to 30 μL HBSS with 20 mM HEPES per well and 30 nL DMSO were added per well by LabCyte ECHO acoustic dispensing. Following 2 h equilibration at room temperature, 30 nL of H4 ligands prepared in DMSO were stamped by LabCyte ECHO acoustic dispensing into seeded EPIC plates and cellular dynamic mass redistribution was monitored using a Corning EPIC plate reader. Following 45 min measurement, 30 nL/well of histamine EC80 was added and monitored to obtain antagonist assay data. Maximum baseline-corrected responses in […] were used to generate concentration response curves. EC50 values were generated using a 4-parameter logistical fit equation to quantify agonist potencies. Functional antagonist affinity values were generated using the Cheng-Prusoff equation to calculate a pKb value using the antagonist assay data.

Data set [2] addresses T2, hERG (Homo sapiens, UniProt Q12809). Kind of data set: in vitro.
The target in data set [3] is T2, hERG. Nature of the data set: hERG Assay (QPatch automated patch clamp; single-concentration assay at 30 μM and pIC50 assay). The settings on record: for inhibition at 30 µM: human, CHO cells stably expressing hERG. (The hERG channel carries a current that helps repolarise heart muscle cells.)
Data set [4] has as its target T1, human H4 receptor. Nature of the data set: H4 Antagonist Functional cAMP Gi Assay. In kind it is cell-based. The following applies: H4 antagonist activity; for Kb: read-out: Human H4 CAMP fpKb (converted). As to the method: H4 Antagonist Functional cAMP Gi Assay
HEKf cells were infected overnight using baculovirus expressing the human H4 receptor, then centrifuged at 1,200 rpm for 5 min, frozen in cell freezing medium (Sigma) and stored at −150° C. On the day of assay, the cells were thawed and resuspended in HBSS with 500 nM IBMX to achieve a density of 1,500 cells/well. H4 ligands were prepared in DMSO and stamped by LabCyte ECHO acoustic dispensing at 25 nL in low volume plates. 10 μL/well cells were plated in the presence of 1 μM forskolin, subjected to centrifugation at 1,200 rpm for 1 min and incubated for 30 min prior to addition of Cisbio cAMP detection reagents to a total volume 20 μL/well. For the antagonist assay, cells were pre-incubated with H4 antagonist ligands for 30 min prior to addition of EC80 concentration of histamine and a further 30 min incubation. Following detection reagent addition and shaking at room temperature for 60 min, cAMP accumulation was measured using HTRF on a PheraStar plate reader. EC50 values were generated using a 4-parameter logistical fit equation to quantify agonist potencies. Functional antagonist affinity values were generated using the Cheng-Prusoff equation to calculate a pKb value using the antagonist assay data.

T2 sequence (Q12809 whole entry): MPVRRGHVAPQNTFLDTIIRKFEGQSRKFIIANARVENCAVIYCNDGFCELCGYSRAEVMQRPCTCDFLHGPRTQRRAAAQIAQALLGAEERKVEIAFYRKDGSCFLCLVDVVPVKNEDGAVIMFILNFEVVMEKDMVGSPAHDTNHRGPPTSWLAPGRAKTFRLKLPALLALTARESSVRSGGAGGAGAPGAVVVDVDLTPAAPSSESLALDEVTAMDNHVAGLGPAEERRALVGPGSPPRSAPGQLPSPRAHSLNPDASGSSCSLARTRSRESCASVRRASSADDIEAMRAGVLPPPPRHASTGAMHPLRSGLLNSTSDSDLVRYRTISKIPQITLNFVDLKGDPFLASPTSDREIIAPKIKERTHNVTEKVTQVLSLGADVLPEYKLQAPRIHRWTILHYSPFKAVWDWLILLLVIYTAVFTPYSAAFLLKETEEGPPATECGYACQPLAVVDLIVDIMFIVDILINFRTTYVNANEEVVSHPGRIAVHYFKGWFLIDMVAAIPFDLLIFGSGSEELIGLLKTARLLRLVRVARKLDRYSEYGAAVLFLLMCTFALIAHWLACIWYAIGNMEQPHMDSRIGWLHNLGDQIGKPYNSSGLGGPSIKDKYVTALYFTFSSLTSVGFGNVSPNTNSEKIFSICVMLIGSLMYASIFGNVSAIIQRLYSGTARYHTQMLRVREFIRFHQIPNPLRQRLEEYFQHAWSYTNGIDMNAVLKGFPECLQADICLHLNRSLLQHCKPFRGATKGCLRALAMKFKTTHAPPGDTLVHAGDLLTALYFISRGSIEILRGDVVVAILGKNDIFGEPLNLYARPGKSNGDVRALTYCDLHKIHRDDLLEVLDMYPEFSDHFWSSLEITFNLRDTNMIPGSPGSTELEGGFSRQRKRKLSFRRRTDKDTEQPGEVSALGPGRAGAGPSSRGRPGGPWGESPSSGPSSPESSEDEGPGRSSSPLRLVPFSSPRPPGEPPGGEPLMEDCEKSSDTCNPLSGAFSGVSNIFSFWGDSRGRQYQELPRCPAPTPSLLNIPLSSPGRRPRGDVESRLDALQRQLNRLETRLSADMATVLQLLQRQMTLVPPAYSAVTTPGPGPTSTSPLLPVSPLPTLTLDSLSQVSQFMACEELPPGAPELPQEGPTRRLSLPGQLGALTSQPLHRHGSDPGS
T1 sequence (Q9H3N8 whole entry): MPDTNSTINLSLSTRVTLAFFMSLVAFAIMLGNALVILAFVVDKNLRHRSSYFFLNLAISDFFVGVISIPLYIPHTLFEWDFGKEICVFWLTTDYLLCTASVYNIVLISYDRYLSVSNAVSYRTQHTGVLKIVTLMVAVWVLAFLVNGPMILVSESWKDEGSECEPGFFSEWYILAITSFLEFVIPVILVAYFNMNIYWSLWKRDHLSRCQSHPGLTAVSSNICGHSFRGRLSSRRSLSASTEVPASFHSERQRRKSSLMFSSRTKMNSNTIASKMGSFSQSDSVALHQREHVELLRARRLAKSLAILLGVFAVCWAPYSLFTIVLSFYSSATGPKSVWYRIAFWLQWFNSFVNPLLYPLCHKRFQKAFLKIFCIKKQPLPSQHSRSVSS

Regarding `Cc1n[nH]c(-c2cc(N3C[C@H]4CCCN[C@H]4C3)nc(N)n2)c1Cl` [Example 17-7, dihydrochloride], the Kb at human H4 receptor [1] is 31.6 nM. The molecule further registered an inhibition at 30 µM at hERG [2] of 38%.
For `Cc1[nH]ncc1-c1cc(N2CC[C@@H](N)C2)nc(N)n1` [Example 9-7], the inhibition at 30 µM on hERG [3] turned out to be 12%. Besides, the figures for the Kb at human H4 receptor [1] and on human H4 receptor [4] were 10 nM and 15.8 nM, respectively.
As for `CN[C@@H]1CCN(c2cc(-c3cn(C)nc3C)nc(N)n2)C1` [Example 11-1, (R)-4-(1,3-dimethyl-1H-pyrazol-4-yl)-6-(3-(methylamino)pyrrolidin-1-yl)pyrimidin-2-amine], on hERG [3], the IC50 is at least 100 µM and the inhibition at 30 µM worked out at 2%. For the same molecule, the Kb at human H4 receptor [1] was 2.51 nM. Also, the Kb on human H4 receptor [4] is 12.6 nM.
At hERG [3], `CN[C@@H]1CCN(c2cc(-c3cn[nH]c3C(C)C)nc(N)n2)C1` [Example 9-3] had an inhibition at 30 µM of 24%. The Kb on human H4 receptor [1] and at human H4 receptor [4] was 15.8 nM throughout.
On hERG [3], `CN[C@@H]1CCN(c2cc(-c3cnn(C4CC4)c3)nc(N)n2)C1` [Example 8-4] displayed an inhibition at 30 µM of 54%. Also, the Kb is 20 nM at human H4 receptor [1] and 50.1 nM on human H4 receptor [4].
The matching figures for `CN[C@@H]1CCN(c2cc(-c3cn[nH]c3C(F)(F)F)nc(N)n2)C1` [Example 9-6]: 18%, 2.51 nM and 6.31 nM.
On the same counts, the results for `Cc1cn[nH]c1-c1cc(N2CC[C@@H](N)C2)nc(N)n1` [Example 4-5] are 18%, 2.51 nM and 10 nM.
In turn, `CN[C@@H]1CCN(c2cc(-c3cn[nH]c3C)nc(N)n2)C1` [Example 9-1] registered an IC50 against hERG [3] of at least 100 µM. Moreover, the Kb is 3.98 nM on human H4 receptor [1] and 7.94 nM on human H4 receptor [4].
The molecule `CN[C@@H]1CCN(c2cc(-c3cnn(C)c3)nc(N)n2)C1` [Example 8-2] showed an inhibition at 30 µM at hERG [3] of 13%. Further, the results for the Kb at human H4 receptor [1] and at human H4 receptor [4] were 1.26 nM and 31.6 nM, respectively.
Take `CC(C)c1cc(N2CC[C@@H](N)C2)nc(N)n1` [JNJ-39758979]: the “hERG pIC50” value at hERG [3] (QPatch, 1, 3, 10 and 30 μM) is at most 4.0. Also, at human H4 receptor [1], the “Human H4 DMR fpKb” value worked out at 8.5. Further, on human H4 receptor [4], the “Human H4 CAMP fpKb” value is listed as 8.1.
As to `CCc1nn(C)cc1-c1cc(N2CC[C@@H](NC)C2)nc(N)n1` [Example 11-2, dihydrochloride], the inhibition at 30 µM on hERG [3] is 20%. The Kb at human H4 receptor [1] and at human H4 receptor [4] was 79.4 nM throughout.

For orientation: inhibition means the change of the read-out against control, counted positive when it falls. Low readings indicate a response near the control, high ones a response far below the control. By IC50 is commonly meant the concentration that inhibits the measured activity by half. Read a low IC50 as greater potency.
